Test results taken from PMC3173463, “Discovery of Dual-Action Membrane-Anchored Modulators of Incretin Receptors” (PLoS ONE, 2011).
Where no end group is shown, it is not given here.

Assays:
GLP-1R = target: T1, GLP-1R (Homo sapiens, UniProt P43220); assay: CRE luciferase reporter gene assay, membrane-tethered ligand co-transfected with GLP-1R; format: cell-based; details: CRE6X-LUC, relative to wild-type tethered construct; Figure 2A-B
T1 construct: expressed in transfected cells; host or cells: HEK293 cells, transient transfection, pcDNA1.1 plasmid
T1 sequence (P43220 24-463): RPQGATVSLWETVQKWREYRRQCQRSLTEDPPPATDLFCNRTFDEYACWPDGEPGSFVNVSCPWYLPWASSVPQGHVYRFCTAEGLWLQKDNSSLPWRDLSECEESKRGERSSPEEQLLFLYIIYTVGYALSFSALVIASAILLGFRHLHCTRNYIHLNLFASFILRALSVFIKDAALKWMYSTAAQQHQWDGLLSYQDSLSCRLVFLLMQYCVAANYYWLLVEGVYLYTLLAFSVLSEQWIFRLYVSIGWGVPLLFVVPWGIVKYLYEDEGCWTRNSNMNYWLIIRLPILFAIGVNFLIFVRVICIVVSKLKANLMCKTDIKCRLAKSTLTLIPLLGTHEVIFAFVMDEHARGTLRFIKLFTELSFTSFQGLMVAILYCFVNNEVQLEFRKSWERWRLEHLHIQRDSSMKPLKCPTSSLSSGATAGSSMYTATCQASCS
Procedure: Figure 2 Activity and selectivity of wild-type and G^7/K^7 derivatives of tGLP-1 and tEXE4. […] HEK 293 cells were transiently transfected with cDNAs encoding the GLP-1R or GIP-R, a tethered ligand, and a CRE6X-LUC reporter gene construct. Twenty four hours post-transfection, ligand-induced activity was quantified as described in Methods. […] Data represent the mean ± SEM from at least 4 independent experiments, each performed at least in quadruplicate.
Receptor-mediated signaling was assessed using a previously described luciferase assay, [18]. In brief, HEK293 cells were plated at a density of 3000–6000 cells per well into clear-bottom, white 96-well plates and grown for 1–2 days to ∼80% confluency. […] Following ligand stimulation, the medium was gently aspirated, the cells were lysed and luciferase activity was quantified using a TopCount NTX after addition of Steadylite^R reagent (PerkinElmer, Boston, MA). […] Substrate cleavage (an index of β-galactosidase expression was quantified by measurement of optical density at 420 nm using a SpectraMax^R microplate reader (Molecular Devices, Sunnyvale, CA). Corresponding values were used to normalize the luciferase data for transfection efficiency.

HA-tagged GIP-R = HA-tagged GIP-R cell surface expression by ELISA; format: cell-based, human; details: HEK 293, HA-GIPR, ELISA 48 hours after transfection, soluble ligand added 24 h after transfection; Figure 4A
Procedure: The impact of soluble peptide (A), tethered ligands (B) and the interaction between soluble and tethered ligands on HA-GIPR surface expression (C) was measured by ELISA. HEK 293 cells were transfected with a plasmid encoding the HA-tagged GIP-R, with or without increasing amounts of a tethered ligand cDNA. Twenty four hours after transfection, soluble ligands were added in selected wells, as indicated. In each experiment, receptor expression was evaluated 48 hours after transfection. […] Data represent the mean ± SEM from at least 4 independent experiments, each performed in 12 replicates. The expression of HA-GIPR in the absence vs presence of soluble or tethered ligand were compared by analysis of variance followed by Dunnett's post-test; significance, *, p<0.05; **, p<0.01.
The surface expression levels of myc-tagged tethered ligands or HA-tagged GIP-Rs were assessed using a previously-established procedure [15], [18]. HEK293 cells grown in 96-well clear Primaria plates (BD Biosciences, Bedford, MA) were transiently transfected with either pcDNA1.1 or a cDNA encoding the relevant epitope-tagged proteins (tethered ligand and/or GIP-R). […] Light absorbance at 450 nm was quantified as a measure of protein expression) using a SpectraMax^R microplate reader.

GIP-R = target: T2, GIP-R (Homo sapiens, UniProt P48546); assay: CRE luciferase reporter gene assay, soluble ligands on GIP-R expressing cells; format: cell-based; details: soluble peptides, 6 hours stimulation; Figure 3B
T2 construct: expressed in transfected cells; host or cells: HEK293 cells, transient transfection, pcDNA1.1 plasmid
T2 sequence (P48546 22-466): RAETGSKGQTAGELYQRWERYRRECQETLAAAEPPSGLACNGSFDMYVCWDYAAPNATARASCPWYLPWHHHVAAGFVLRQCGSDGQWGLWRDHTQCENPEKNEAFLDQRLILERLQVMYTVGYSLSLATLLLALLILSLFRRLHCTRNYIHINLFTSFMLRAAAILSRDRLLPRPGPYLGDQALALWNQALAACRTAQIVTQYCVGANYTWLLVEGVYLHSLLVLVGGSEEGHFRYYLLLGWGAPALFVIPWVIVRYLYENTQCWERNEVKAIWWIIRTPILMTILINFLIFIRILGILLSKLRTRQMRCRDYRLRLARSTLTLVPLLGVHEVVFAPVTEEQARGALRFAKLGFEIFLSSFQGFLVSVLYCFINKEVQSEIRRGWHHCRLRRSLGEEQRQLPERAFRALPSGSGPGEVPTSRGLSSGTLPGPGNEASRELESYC
Procedure: HEK293 cells were transiently transfected with cDNAs encoding the indicated receptor and a CRE6X-LUC reporter gene construct. Twenty four hours post-transfection, cells were stimulated for 6 hours with soluble peptides; ligand-induced activity was then quantified.
Receptor-mediated signaling was assessed using a previously described luciferase assay [15], [18]. In brief, HEK293 cells were plated at a density of 3000–6000 cells per well into clear-bottom, white 96-well plates and grown for 1–2 days to ∼80% confluency. Cells were then transiently transfected using Lipofectamine^R reagent (Invitrogen, Carlsbad, CA) with cDNAs encoding (i) a GPCR (or the empty expression vector), (ii) a tethered ligand (where applicable), (iii) the CRE6X-LUC reporter gene and (iv) β-galactosidase (as a control for transfection efficiency). For experiments investigating the agonist function of soluble peptides, tethered ligand cDNA was not included in the transfection reaction. Twenty four hours after transfection, cells were incubated with or without selected soluble peptide in serum-free medium for 6 hours. Following ligand stimulation, the medium was gently aspirated, the cells were lysed and luciferase activity was quantified using a TopCount NTX after addition of Steadylite^R reagent (PerkinElmer, Boston, MA).

GIPR-CHE = assay: Confocal microscopy of GIPR-CHE subcellular distribution; format: cell-based, human; details: HEK 293, 18 hours treatment, Figure 5A
Procedure: The impact of selected soluble peptides (A) and tethered ligands (B) on the subcellular distribution of GIPR-CHE was studied using confocal microscopy. HEK 293 cells were transiently transfected with a plasmid encoding the GIPR-CHE, with or without cDNA encoding a GFP-tagged tethered ligand. Twenty-four hours later, the cells were treated for 18 hours with a soluble peptide or the corresponding vehicle, as indicated. The subcellular distribution of receptor was then visualized.
Cells were transfected with plasmids encoding GIPR-CHE and tEXE4-GFP or tGLP1-GFP. Twenty-four hours later, the cells were treated for 18 h with media containing 100 nM of soluble GIP, followed by confocal microscopy imaging.
HEK293 cells were plated at a density of 150,000 cells per dish onto poly-L-lysine coated 35 mm glass bottom dishes (MatTek Corporation, Ashland, MA) and grown for 1 day to ∼60–80% confluency. Cells were then transfected with cDNA encoding GIPR-CHE and a GFP-tagged tethered ligand construct. In some experiments, soluble peptides were added 24 hours after transfection and cells were incubated at 37°C for an additional 18–24 hours before imaging. Forty eight hours following transfection, the cells were washed once with PBS and fixed with 4% paraformaldehyde in PBS for 10 minutes. […]

| Substance | tethered ligand-induced activity at the GLP-1R (GLP-1R) | GIP-R surface expression after prolonged incubation with soluble ligand (HA-tagged GIP-R) | agonist activity of soluble peptide at the GIP-R (GIP-R) | GIPR-CHE subcellular distribution after soluble peptide (GIPR-CHE) |
| --- | --- | --- | --- | --- |
| [G^7]tGLP-1: membrane-tethered GLP-1 with glycine at position 7 (GAEGTFTSDVSSYLEGQAAKEFIAWLVKGRG; also: fused with epitope tag, linkers, membrane-anchoring sequence; UniProt P01275 98-128, looked up, variant H7G) | activity comparable to the corresponding unmodified ligands |  |  |  |
| glucagon-like peptide-1 [GLP-1] |  | no effect | even lower potency agonist |  |
| glucose-dependent insulinotropic polypeptide [GIP] |  | markedly reduced |  | massive GIPR-CHE endocytosis |
